Assays:
Assay in all cases: iSPP profiling, P. falciparum lysate
Assay type in all cases: binding, Plasmodium falciparum
[1] = tested on: AAA family ATPase (W7JWU4)
Experimental: (§1) P. falciparum NF54 lysates were extracted as described in ^[26^] . The parasite asynchronous culture was extracted once 3-5% parasitemia was reached. Saponin lysis was done as described in 2.2.10. Once the parasite pellet was obtained, 2.5 volumes of ice-cold lysis buffer (50 mM Tris/HCl pH 7.5 (Avantor), 5% glycerol (Sigma-Aldrich), 150 mM NaCl (Carl Roth), 1.5 mM MgCl2 (Sigma-Aldrich), 1 mM DTT (Carl Roth), 0.8% IGEPAL CA-630 (Sigma-Aldrich), 1X Halt Protease and Phosphatase Inhibitor-Cocktails EDTA-free (Thermo Fisher Scientific)) was added to the parasite pellet. The lysate solution was subjected to three cycles of flash freeze-thaw with liquid nitrogen and ddH2O at RT. The lysates were centrifuged at 20,000 g for 20 minutes at 4 °C. The soluble protein fraction (supernatant) was collected and the protein content was quantified using the BCA assay (Pierce™ BCA Protein Assay Kit, Thermo Fisher Scientific). The lysate was stored at -80 °C until further use.
(§2) The P. falciparum lysate was thawed on ice and diluted to 0.8 mg/mL. […] Subsequently, the samples were incubated at room temperature for 30 minutes using a rotating mixer. After distribution into a 96-well plate, the samples were treated with increasing concentrations of A.E.A. (v/v) ranging from 14% to 28% (14, 16, 18, 20, 22, 24, 26, and 28%). Following a 20-minute incubation at 37°C with shaking at 750 rpm, the samples were centrifuged at 4400 g for 35 minutes to remove precipitated proteins. The soluble fractions were then pooled in equal volumes into a single sample using the Bravo Automated Liquid Handling Platform. The pooled samples were subsequently prepared for LC-MS/MS analysis.
(§3) The raw LFQ-DIA intensity values of biological replicates across all conditions were normalized to the median abundance using Excel. The normalized values were then log2 transformed in Perseus (v2.0.10.0).^[58^] Missing values were imputed from a normal distribution (width 0.3, down shift 1.5), and p-values were obtained using a two-sample t-test over replicates with a permutation-based false discovery rate correction (FDR 0.05). Volcano plots were generated in RStudio using the EnhancedVolcano package (v. 1.20.0), ^[59^] plotting proteins by statistical significance (y-axis: –Log10 p-value) versus the magnitude of change (x-axis: log2 fold change of protein intensities for each compound condition relative to the vehicle control). The heatmap was generated in Perseus (v2.0.10.0). Dose-dependent curves were generated using normalized protein intensity values, expressed as a ratio to the vehicle control. Plots were created in GraphPad Prism (v8.3.0) using a nonlinear regression model.

DnaJ protein (W7JVI6) = tested on: DnaJ protein (W7JVI6)
Experimental: as §1, §2, §3

[2] = tested on: Uncharacterized protein (W7KIB1)
Experimental: as §1, §2, §3

[3] = tested on: 40S ribosomal protein S4 (W7JT49)
Experimental: as §1, §2, §3

[4] = tested on: Phospholipid-transporting ATPase (W7JSF3;W7K4C4)
Experimental: as §1, §2, §3

[5] = tested on: Uncharacterized protein (W7JXC3)
Experimental: as §1, §2, §3

[6] = tested on: DNA primase large subunit (W7KFW7)
Experimental: as §1, §2, §3

[7] = tested on: dolichyl-diphosphooligosaccharide--protein glycotransferase (W7K3H0)
Experimental: as §1, §2, §3

[8] = tested on: ATP-dependent zinc metalloprotease FTSH (W7JKR1)
Experimental: as §1, §2, §3

[9] = tested on: 40S ribosomal protein S24 (W7KAD9)
Experimental: as §1, §2, §3

[10] = tested on: 60S ribosomal protein L4 (W7KB54)
Experimental: as §1, §2, §3

[11] = tested on: FACT complex subunit (W7KAC4)
Experimental: as §1, §2, §3

[12] = tested on: PI3K/PI4K catalytic domain-containing protein (W7K7J6)
Experimental: as §1, §2, §3

[13] = tested on: Ubiquitin-protein ligase (W7JWT0)
Experimental: as §1, §2, §3

[14] = tested on: Eukaryotic translation initiation factor 3 subunit A (W7KD62)
Experimental: as §1, §2, §3

CN1CCN(Cc2ccc(O)c(NC(=O)c3cccc(Oc4cc(C(F)(F)F)ccn4)c3)c2)CC1 [Compound 31, N-(2-hydroxy-5-((4-methylpiperazin-1-yl)methyl)phenyl)-3-((4-(trifluoromethyl)pyridin-2-yl)oxy)benzamide]
log2FC ([1]; 10 µM): 0.33
log2FC ([1]; 50 µM): 0.46
log2FC ([1]; 100 µM): 0.35
log2FC ([1]; 10^-2 µM): 0.29
log2FC ([1]; 10^-3 µM): 0.18
log2FC (DnaJ protein (W7JVI6); 10 µM): 0.38
log2FC (DnaJ protein (W7JVI6); 50 µM): 0.51
log2FC (DnaJ protein (W7JVI6); 100 µM): 0.40
log2FC (DnaJ protein (W7JVI6); 10^-2 µM): 0.30
log2FC (DnaJ protein (W7JVI6); 10^-3 µM): 0.12
log2FC ([2]; 10 µM): 1.08
log2FC ([2]; 50 µM): 1.03
log2FC ([2]; 100 µM): 0.88
log2FC ([2]; 10^-2 µM): 1.16
log2FC ([2]; 10^-3 µM): 0.39
log2FC ([3]; 10 µM): 0.53
log2FC ([3]; 50 µM): 0.68
log2FC ([3]; 100 µM): 0.62
log2FC ([3]; 10^-2 µM): 0.39
log2FC ([3]; 10^-3 µM): 0.19
log2FC ([4]; 10 µM): 0.33
log2FC ([4]; 50 µM): 0.36
log2FC ([4]; 100 µM): 0.30
log2FC ([4]; 10^-2 µM): 0.36
log2FC ([4]; 10^-3 µM): 0.20
log2FC ([5]; 10 µM): 0.50
log2FC ([5]; 50 µM): 0.70
log2FC ([5]; 100 µM): 0.40
log2FC ([5]; 10^-2 µM): 0.36
log2FC ([5]; 10^-3 µM): 0.02
log2FC ([6]; 10 µM): 0.33
log2FC ([6]; 50 µM): 0.51
log2FC ([6]; 100 µM): 0.41
log2FC ([6]; 10^-2 µM): 0.50
log2FC ([6]; 10^-3 µM): 0.39
log2FC ([7]; 10 µM): 0.53
log2FC ([7]; 50 µM): 0.72
log2FC ([7]; 100 µM): 0.44
log2FC ([7]; 10^-2 µM): 0.59
log2FC ([8]; 10 µM): 0.49
log2FC ([8]; 50 µM): 0.64
log2FC ([8]; 100 µM): 0.46
log2FC ([8]; 10^-2 µM): 0.46
log2FC ([8]; 10^-3 µM): 0.20
log2FC ([9]; 10 µM): 0.51
log2FC ([9]; 50 µM): 0.70
log2FC ([9]; 100 µM): 0.57
log2FC ([9]; 10^-2 µM): 0.44
log2FC ([9]; 10^-3 µM): 0.27
log2FC ([10]; 10 µM): 0.49
log2FC ([10]; 50 µM): 0.63
log2FC ([10]; 100 µM): 0.50
log2FC ([10]; 10^-2 µM): 0.41
log2FC ([10]; 10^-3 µM): 0.21
log2FC ([11]; 10 µM): 0.30
log2FC ([11]; 50 µM): 0.55
log2FC ([11]; 100 µM): 0.41
log2FC ([11]; 10^-2 µM): 0.48
log2FC ([11]; 10^-3 µM): 0.30
log2FC ([12]; 10 µM): 0.30
log2FC ([12]; 50 µM): 0.44
log2FC ([12]; 100 µM): 0.41
log2FC ([12]; 10^-2 µM): 0.42
log2FC ([12]; 10^-3 µM): 0.17
log2FC ([13]; 10 µM): 0.52
log2FC ([13]; 50 µM): 0.87
log2FC ([13]; 100 µM): 0.59
log2FC ([13]; 10^-2 µM): 0.50
log2FC ([13]; 10^-3 µM): 0.25
log2FC ([14]; 10 µM): 0.35
log2FC ([14]; 50 µM): 0.45
log2FC ([14]; 100 µM): 0.31
log2FC ([14]; 10^-2 µM): 0.30
log2FC ([14]; 10^-3 µM): 0.15

Reference: paper PMC12668308, “A Novel Antimalarial Agent that Inhibits Protein Synthesis in Plasmodium falciparum” (Angewandte Chemie (International Ed. in English), 2025)
